Biological target: Protein-arginine deiminase type-2 (Homo sapiens) (UniProt Q9Y2J8)
Assay: PubChem AID 651865
Conditions: recombinant PAD2, BAEE citrulline colorimetric, inactivation kinetics; hits give high values

Sequence of Protein-arginine deiminase type-2 (Homo sapiens) (Q9Y2J8 whole entry, looked up): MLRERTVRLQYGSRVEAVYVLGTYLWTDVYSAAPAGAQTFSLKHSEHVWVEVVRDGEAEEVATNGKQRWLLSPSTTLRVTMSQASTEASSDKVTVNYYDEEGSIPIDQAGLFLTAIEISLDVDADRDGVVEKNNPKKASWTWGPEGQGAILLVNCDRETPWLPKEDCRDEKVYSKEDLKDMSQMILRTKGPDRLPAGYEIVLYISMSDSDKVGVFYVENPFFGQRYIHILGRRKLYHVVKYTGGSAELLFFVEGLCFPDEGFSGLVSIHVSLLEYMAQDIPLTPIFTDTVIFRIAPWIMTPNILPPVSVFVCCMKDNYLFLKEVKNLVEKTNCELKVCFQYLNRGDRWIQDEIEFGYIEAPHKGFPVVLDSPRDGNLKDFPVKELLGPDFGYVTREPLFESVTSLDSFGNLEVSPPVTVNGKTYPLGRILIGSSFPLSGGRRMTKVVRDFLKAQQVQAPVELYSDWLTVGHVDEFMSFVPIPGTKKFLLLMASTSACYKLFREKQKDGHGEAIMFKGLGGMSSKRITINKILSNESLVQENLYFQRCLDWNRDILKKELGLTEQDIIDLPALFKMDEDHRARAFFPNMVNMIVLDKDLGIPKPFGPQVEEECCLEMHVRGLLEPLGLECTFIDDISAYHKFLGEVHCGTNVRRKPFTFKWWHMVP

NC1=CC(=O)c2ccc(-c3cccc(C(=O)O)n3)nc2C1=O
kinact/KI: 122 M⁻¹ s⁻¹
